Data taken from patent US8871934B2, “Fluorene compound and pharmaceutical use thereof” (Japan Tobacco Inc., priority 2008, dated 2014).
pIC50: −log10 of the molar value. Where two headings read alike, the source gives them in different places.

Target: human PDHK2 (hPDHK2) (Homo sapiens (Human), UniProt Q15119)
Assay: Inhibitory action of PDHK activity in vitro (kinase reaction, residual PDH activity measured)
Format: biochemical
[1] = PDHK inhibitory activity, class symbol of IC50
[2] = read-out: PDHK inhibitory activity IC50

Compound | pIC50 [1] | pIC50 [2] | pIC50 (class symbol of IC50, read-out: PDHK inhibitory activity)
CN(CCOc1cnc2c(c1)C(O)(C(F)(F)F)c1ccccc1-2)C(=O)CO (centres unmarked) [compound 399] | 6.00 to 7.00 | 6.83 | –
O=C(COc1ccc2c(c1)C(O)(C(F)(F)F)c1ccccc1-2)N(CCO)CCO (centres unmarked) [compound 400] | < 6.00 | 5.15 | –
O=C1CCCCN1CCCOc1ccc2c(c1)C(O)(C(F)(F)F)c1ccccc1-2 (centres unmarked) [compound 401] | 6.00 to 7.00 | 6.26 | –
O=C(O)Cc1ccc2c(c1)C(O)(C(F)(F)F)c1ccccc1-2 (centres unmarked) [compound 402] | < 6.00 | < 5.00 | –
NC(=O)Cc1ccc2c(c1)C(O)(C(F)(F)F)c1ccccc1-2 (centres unmarked) [compound 403] | < 6.00 | < 5.00 | –
O=C(O)CCCOc1cc(Br)c2c(c1)C(O)(C(F)(F)F)c1ccccc1-2 (centres unmarked) [compound 404] | 6.00 to 7.00 | 6.71 | –
OCCc1ccc2c(c1)C(O)(C(F)(F)F)c1ccccc1-2 (centres unmarked) [compound 405] | < 6.00 | 5.20 | –
OCCCCCOc1cc(-c2cncnc2)c2c(c1)C(O)(C(F)(F)F)c1ccccc1-2 (centres unmarked) [compound 406] | > 7.00 | 7.60 | –
Cn1cc(-c2cc(OCCCCCO)cc3c2-c2ccccc2C3(O)C(F)(F)F)cn1 (centres unmarked) [compound 407] | > 7.00 | 7.51 | –
CN(CCOc1cc(Cl)c2c(c1)C(O)(C(F)(F)F)c1ccccc1-2)S(C)(=O)=O (centres unmarked) [compound 408] | > 7.00 | 7.19 | –
CN(CCOc1cc(Cl)c2c(c1)C(O)(C(F)(F)F)c1ccccc1-2)C(=O)CO (centres unmarked) [compound 409] | > 7.00 | 7.17 | –
NC(=O)CCCOc1cc(Cl)c2c(c1)C(O)(C(F)(F)F)c1ccccc1-2 (centres unmarked) [compound 410] | 6.00 to 7.00 | 6.81 | –
OCCn1cc(-c2cccc3c2-c2ccccc2C3(O)C(F)(F)F)cn1 (centres unmarked) [compound 411] | > 7.00 | 7.18 | –
Cn1cc(-c2cc(OCCN3CCCC3=O)cc3c2-c2ccccc2C3(O)C(F)(F)F)cn1 (centres unmarked) [compound 412] | > 7.00 | 7.66 | –
CC(Oc1ccc2c(c1)C(O)(C(F)(F)F)c1ccccc1-2)C(=O)O (centres unmarked) [compound 413] | < 6.00 | 5.91 | –
Cn1cc(-c2cc(C(=O)N3CC3)cc3c2-c2ccccc2C3(O)C(F)(F)F)cn1 (centres unmarked) [compound 414] | > 7.00 | 7.49 | –
CC(=O)NCc1ccc2c(c1)C(O)(C(F)(F)F)c1ccccc1-2 (centres unmarked) [compound 415] | < 6.00 | 5.04 | –
O=C1CCCCN1CCOc1ccc2c(c1)C(O)(C(F)(F)F)c1ccccc1-2 (centres unmarked) [compound 416] | 6.00 to 7.00 | 6.98 | –
CNCc1ccc2c(c1)C(O)(C(F)(F)F)c1ccccc1-2 (centres unmarked) [compound 417] | – | < 6.00 | < 6.00
CC(=O)N(C)Cc1ccc2c(c1)C(O)(C(F)(F)F)c1ccccc1-2 (centres unmarked) [compound 418] | < 6.00 | 5.22 | –
O=C1CCC(COc2ccc3c(c2)C(O)(C(F)(F)F)c2ccccc2-3)N1 (centres unmarked) [compound 419] | 6.00 to 7.00 | 6.30 | –
CN1C(=O)CCC1COc1ccc2c(c1)C(O)(C(F)(F)F)c1ccccc1-2 (centres unmarked) [compound 420] | 6.00 to 7.00 | 6.65 | –
O=C1CCC(COc2ccc3c(c2)C(O)(C(F)(F)F)c2ccccc2-3)N1CCCO (centres unmarked) [compound 421] | 6.00 to 7.00 | 6.63 | –

Compound | pIC50 [1] | pIC50 [2] | pIC50 (class symbol of IC50, read-out: PDHK inhibitory activity)
CC(=O)N(C)CCOc1cc(-c2cncnc2)c2c(c1)C(O)(C(F)(F)F)c1ccccc1-2 (centres unmarked) [compound 422] | > 7.00 | 7.64 | –
CC(=O)N(C)CCOc1cc(-c2cnn(C)c2)c2c(c1)C(O)(C(F)(F)F)c1ccccc1-2 (centres unmarked) [compound 423] | > 7.00 | 7.68 | –
CN(CCOc1cc(-c2cncnc2)c2c(c1)C(O)(C(F)(F)F)c1ccccc1-2)C(=O)CO (centres unmarked) [compound 424] | > 7.00 | 7.64 | –
CN(CCOc1cc(-c2cnn(C)c2)c2c(c1)C(O)(C(F)(F)F)c1ccccc1-2)C(=O)CO (centres unmarked) [compound 425] | > 7.00 | 7.68 | –
Cn1cc(-c2cc(OCCCCO)cc3c2-c2ccccc2C3(O)C(F)(F)F)cn1 (centres unmarked) [compound 426] | > 7.00 | 7.62 | –
CN(C)C(=O)CCCOc1cc(-c2cnn(C)c2)c2c(c1)C(O)(C(F)(F)F)c1ccccc1-2 (centres unmarked) [compound 427] | > 7.00 | 7.70 | –
OCCCCOc1cc(-c2cncnc2)c2c(c1)C(O)(C(F)(F)F)c1ccccc1-2 (centres unmarked) [compound 428] | > 7.00 | 7.60 | –
CN(C)C(=O)CCCOc1cc(-c2cncnc2)c2c(c1)C(O)(C(F)(F)F)c1ccccc1-2 (centres unmarked) [compound 429] | > 7.00 | 7.72 | –
O=C1CCCN1CCOc1cnc2c(c1)C(O)(C(F)(F)F)c1ccccc1-2 (centres unmarked) [compound 430, 1-[2-(5-hydroxy-5-trifluoromethyl-5H-indeno[1,2-b]pyridin-3-yloxy)-ethyl]-pyrrolidin-2-one] | > 7.00 | 7.19 | –
COCOCCN1C(=O)CCC1COc1ccc2c(c1)C(O)(C(F)(F)F)c1ccccc1-2 (centres unmarked) [compound 431] | 6.00 to 7.00 | 6.60 | –
O=C1CCC(COc2ccc3c(c2)C(O)(C(F)(F)F)c2ccccc2-3)N1CCO (centres unmarked) [compound 432] | 6.00 to 7.00 | 6.61 | –
Cn1cc(-c2cc(OCC(=O)O)cc3c2-c2ccccc2C3(O)C(F)(F)F)cn1 (centres unmarked) [compound 433] | 6.00 to 7.00 | 6.41 | –
NC(=O)COc1cnc2c(c1)C(O)(C(F)(F)F)c1ccccc1-2 (centres unmarked) [compound 434] | 6.00 to 7.00 | 6.25 | –
CC(=O)NCCOc1cc(-c2cnn(C)c2)c2c(c1)C(O)(C(F)(F)F)c1ccccc1-2 (centres unmarked) [compound 435] | > 7.00 | 7.41 | –
OCCCn1cc(-c2cccc3c2-c2ccccc2C3(O)C(F)(F)F)cn1 (centres unmarked) [compound 436] | > 7.00 | 7.19 | –
O=C(COc1cc(Br)c2c(c1)C(O)(C(F)(F)F)c1ccccc1-2)N1CCC1 (centres unmarked) [compound 437] | > 7.00 | 7.22 | –
CNC(=O)COc1cc(Br)c2c(c1)C(O)(C(F)(F)F)c1ccccc1-2 (centres unmarked) [compound 438] | 6.00 to 7.00 | 6.95 | –
Cn1cc(-c2cc(OCC(=O)N3CC(CO)C3)cc3c2-c2ccccc2C3(O)C(F)(F)F)cn1 (centres unmarked) [compound 439] | > 7.00 | 7.47 | –
Cn1cc(-c2cc(OCC(=O)N3CCC(CO)CC3)cc3c2-c2ccccc2C3(O)C(F)(F)F)cn1 (centres unmarked) [compound 440] | > 7.00 | 7.49 | –
Cn1cc(-c2cc(OCC(=O)N3CCC3)cc3c2-c2ccccc2C3(O)C(F)(F)F)cn1 (centres unmarked) [compound 441] | > 7.00 | 7.44 | –
CNC(=O)COc1cc(-c2cnn(C)c2)c2c(c1)C(O)(C(F)(F)F)c1ccccc1-2 (centres unmarked) [compound 442] | > 7.00 | 7.40 | –
CC(=O)N(CCOc1ccc2c(c1)C(O)(C(F)(F)F)c1ccccc1-2)CCC(=O)O (centres unmarked) [compound 443] | < 6.00 | 5.94 | –
CN(CCOc1ccc2c(c1)C(O)(C(F)(F)F)c1ccccc1-2)CC(=O)O (centres unmarked) [compound 444] | < 6.00 | 5.41 | –

Compound | pIC50 [1] | pIC50 [2] | pIC50 (class symbol of IC50, read-out: PDHK inhibitory activity)
O=C1CC[C@H](COc2ccc3c(c2)C(O)(C(F)(F)F)c2ccccc2-3)N1 (some centres unmarked) [compound 445] | 6.00 to 7.00 | 6.22 | –
O=C1CC[C@@H](COc2ccc3c(c2)C(O)(C(F)(F)F)c2ccccc2-3)N1 (some centres unmarked) [compound 446] | 6.00 to 7.00 | 6.25 | –
CN1C(=O)CC[C@@H]1COc1ccc2c(c1)C(O)(C(F)(F)F)c1ccccc1-2 (some centres unmarked) [compound 447] | 6.00 to 7.00 | 6.69 | –
CN1C(=O)CC[C@H]1COc1ccc2c(c1)C(O)(C(F)(F)F)c1ccccc1-2 (some centres unmarked) [compound 448] | 6.00 to 7.00 | 6.42 | –
Cn1cc(-c2cc(OCCCC(=O)O)cc3c2-c2ccccc2C3(O)C(F)(F)F)cn1 (centres unmarked) [compound 449] | > 7.00 | 7.33 | –
O=C1CCC(CO)N1CCOc1ccc2c(c1)C(O)(C(F)(F)F)c1ccccc1-2 (centres unmarked) [compound 450] | 6.00 to 7.00 | 6.35 | –
Cn1cc(-c2cc(OCCCO)cc3c2-c2ccccc2C3(O)C(F)(F)F)cn1 (centres unmarked) [compound 453] | > 7.00 | 7.55 | –
Cn1cc(-c2cc(OCCC(=O)O)cc3c2-c2ccccc2C3(O)C(F)(F)F)cn1 (centres unmarked) [compound 454] | > 7.00 | 7.19 | –
CN(C)C(=O)CCOc1cc(-c2cnn(C)c2)c2c(c1)C(O)(C(F)(F)F)c1ccccc1-2 (centres unmarked) [compound 455] | > 7.00 | 7.59 | –
Cn1cc(-c2cc(OCCO)cc3c2-c2ccccc2C3(O)C(F)(F)F)cn1 (centres unmarked) [compound 456] | > 7.00 | 7.35 | –
CN(C)C(=O)COc1cc(-c2cnn(C)c2)c2c(c1)C(O)(C(F)(F)F)c1ccccc1-2 (centres unmarked) [compound 457] | > 7.00 | 7.52 | –
COc1cc(-c2cnn(CCO)c2)c2c(c1)C(O)(C(F)(F)F)c1ccccc1-2 (centres unmarked) [compound 458] | > 7.00 | 7.41 | –
O=C1OCCN1CCOc1ccc2c(c1)C(O)(C(F)(F)F)c1ccccc1-2 (centres unmarked) [compound 459] | 6.00 to 7.00 | 6.73 | –
OCCn1cc(-c2cc(Cl)cc3c2-c2ccccc2C3(O)C(F)(F)F)cn1 (centres unmarked) [compound 460] | > 7.00 | 7.52 | –
O=C(c1cc(-c2cnn(CCO)c2)c2c(c1)C(O)(C(F)(F)F)c1ccccc1-2)N1CCC1 (centres unmarked) [compound 461] | > 7.00 | 7.52 | –
CN(CC(=O)O)C(=O)COc1ccc2c(c1)C(O)(C(F)(F)F)c1ccccc1-2 (centres unmarked) [compound 462] | < 6.00 | 5.22 | –
COc1cc(-c2cnn(C)c2)c2c(c1)C(O)(C(F)(F)F)c1ccccc1-2 (centres unmarked) [compound 463] | > 7.00 | 7.33 | –
Cn1cc(-c2cc(OCCNC(=O)CCC(=O)C(F)(F)F)cc3c2-c2ccccc2C3(O)C(F)(F)F)cn1 (centres unmarked) [compound 464] | > 7.00 | 7.38 | –
CC(C)n1cc(-c2cccc3c2-c2ccccc2C3(O)C(F)(F)F)cn1 (centres unmarked) [compound 465] | > 7.00 | 7.21 | –
OC1(C(F)(F)F)c2ccccc2-c2c(-c3cnn(Cc4ccccc4)c3)cccc21 (centres unmarked) [compound 466] | > 7.00 | 7.26 | –
O=S1(=O)CCCN1CCOc1ccc2c(c1)C(O)(C(F)(F)F)c1ccccc1-2 (centres unmarked) [compound 468] | 6.00 to 7.00 | 6.49 | –
